From patent publication US20250228242A1 (priority 2021, published 2025) come the findings set out here.

A word on the inhibition: it is the share of the control response that was lost under treatment.

Where a name gives a salt, the structure may show the parent alone.

One assay has as its system Phytophthora infestans. The assay is described as follows: whole plant or invertebrate. The assay is classed as in vivo. The settings on record: in Solanum tuberosum, 120 h, read-out: P. infestans % inhibition.
The test system of the next assay is Rhodococcus sp. The assay is described as follows: Bacterial liquid culture growth curves (OD600), Rhodococcus sp. Conditions: 18.5 h, read-out: Absolute growth rate relative to mock control, Rhodococcus sp.
In assay [1] the test system is Pseudomonas syringae pv. tomato (Pto) DC3000. As to the kind of experiment: Bacterial liquid culture growth curves (OD600), Pto DC3000. The settings on record: 18.5 h, read-out: Absolute growth rate relative to mock control, Pto DC3000.
The test system of another assay is P. infestans. The assay is described as follows: whole plant or invertebrate. The assay is classed as in vivo. The settings on record: Phytophthora infestans, in Solanum tuberosum, read-out: P. infestans % inhibition.

On to `Ic1ccc(-c2cc(-c3ccc4c(c3)OCO4)n[nH]2)cc1` [Compound 15, 3-(1,3-Benzodioxol-5-yl)-5-(4-iodophenyl)-1H-pyrazole], for which, in the assay on Phytophthora infestans, the inhibition at 100 µM turned out to be 56%.

Consider `c1ccc(-c2cc(-c3ccc4c(c3)OCO4)no2)cc1` [Compound 17, 3-(1,3-Benzodioxol-5-yl)-5-phenylisoxazole], for which the inhibition at 100 µM with Phytophthora infestans is 13%.

With `COc1ccc(-c2cc(-c3cccc(F)c3)on2)cc1OC` [Compound 20, 3-(3,4-Dimethoxyphenyl)-5-(3-fluorophenyl)isoxazole], the inhibition at 100 µM with Phytophthora infestans is 21%.

In the case of `COc1ccc(-c2cc(-c3ccc(Cl)cc3)n[nH]2)cc1` [Compound 31, 3-(4-Chlorophenyl)-5-(4-methoxyphenyl)-1H-pyrazole], the inhibition at 100 µM in the assay on Phytophthora infestans turned out to be 77%.

For `CNc1ccc(-c2cc(-c3cccc(Br)c3)[nH]n2)cc1` [Compound 42, 5-(3-Bromophenyl)-3-[4-(methylamino)phenyl]-1H-pyrazole], the results for the activity at 100 µM (in the assay with Rhodococcus sp.; in assay [1]) were 72% and 73%, respectively.

Regarding `Fc1cc(F)cc(-c2cc(-c3ccc4c(c3)OCO4)n[nH]2)c1` [Compound 104, 3-(1,3-Benzodioxol-5-yl)-5-(3,5-difluorophenyl)-1H-pyrazole], the results for the activity at 100 µM (with Rhodococcus sp.; in assay [1]) were 51% and 101%, respectively.

Turning to `N[C@@H](CC(=O)O)C(=O)Nc1ccc(-c2nc(-c3cccc(C(F)(F)F)c3)no2)cc1` [Compound 133, (3S)-3-Amino-4-oxo-4-[(4-{3-[3-(trifluoromethyl)phenyl]-1,2,4-oxadiazol-5-yl}phenyl)amino]butanoic acid hydrochloride], the inhibition at 100 µM in the assay on P. infestans was found to be 85%.

For `CCOc1ccc(-c2cc(-c3ccc(C)c(C)c3)[nH]n2)cc1` [Compound 134, 3-(3,4-Dimethylphenyl)-5-(4-ethoxyphenyl)-1H-pyrazole], the inhibition at 100 µM in the assay with P. infestans stood at 19%.

With `O=C(O)c1ccc(-c2nc(-c3ccc(N4CCCC4)cc3)c[nH]2)cc1` [Compound 135, 4-{4-[4-(Pyrrolidin-1-yl)phenyl]-1H-imidazol-2-yl}benzoic acid], the inhibition at 100 µM in the assay on P. infestans amounted to 51%.

On to `O=S(=O)(Nc1cccc(-c2nc(-c3ccc(OC(F)(F)F)cc3)c[nH]2)c1)c1ccc(Cl)cc1` [Compound 136, 4-Chloro-N-(3-{4-[4-(trifluoromethoxy)phenyl]-1H-imidazol-2-yl}phenyl)benzenesulfonamide], for which the inhibition at 100 µM in the assay on P. infestans amounted to 7%.

Take `COCCOC(=O)Nc1cccc(-c2nc(-c3ccc(OC(F)(F)F)cc3)c[nH]2)c1` [Compound 137, 2-Methoxyethyl (3-{4-[4-(trifluoromethoxy)phenyl]-1H-imidazol-2-yl}phenyl) carbamate]: in the assay with P. infestans, the inhibition at 100 µM is 77%.

`CCc1ccc(-c2c[nH]c(-c3cccc(C(=O)N4CCN(C)CC4)c3)n2)cc1` [Compound 138, (4-Methylpiperazin-1-yl){3-[4-(4-ethylphenyl)-1H-imidazol-2-yl]phenyl}methanone]: the inhibition at 100 µM in the assay on P. infestans amounted to 68%.

As for `COCCOC(=O)Nc1cccc(-c2nc(-c3ccc(OC)cc3)n[nH]2)c1` [Compound 139, 2-Methoxyethyl {3-[3-(4-methoxyphenyl)-1H-1,2,4-triazol-5-yl]phenyl}carbamate], the inhibition at 100 µM with P. infestans worked out at 48%.

Take `COc1ccc(-c2n[nH]c(-c3cccc(NC(=O)[C@H](C)N)c3)n2)cc1` [Compound 140, (2S)-2-Amino-N-{3-[3-(4-methoxyphenyl)-1H-1,2,4-triazol-5-yl]phenyl}propenamide hydrochloride]: in the assay on P. infestans, the inhibition at 100 µM turned out to be 39%.

For the compound `N[C@@H](Cc1ccccc1)C(=O)Nc1cccc(-c2nc(-c3ccc(OC(F)(F)F)cc3)c[nH]2)c1` [Compound 141, (2S)-2-Amino-N-{3-[4-(4-trifluoromethoxyphenyl)-1H-imidazol-2-yl]phenyl}-3-phenylpropanamide hydrochloride], the inhibition at 100 µM in the assay on P. infestans is 93%.

As for `O=C(O)c1ccc(-c2cc(-c3ccc(F)cc3)[nH]n2)cc1` [Compound 142, 4-[5-(4-Fluorophenyl)-1H-pyrazol-3-yl]benzoic acid], in the assay on P. infestans, the inhibition at 100 µM was determined as 46%.

As for `COc1ccc(-c2c[nH]c(-c3cccc(N4CCOCC4)c3)n2)cc1OC` [Compound 144, 4-{3-[4-(3,4-Dimethoxyphenyl)-1H-imidazol-2-yl]phenyl}morpholine], in the assay with P. infestans, the inhibition at 100 µM amounted to 81%.

Consider `CC(C)[C@H](N)C(=O)Nc1cccc(-c2cc(-c3cccc(OC(F)(F)F)c3)[nH]n2)c1` [Compound 145, (2S)-2-Amino-N-{3-[5-(3-trifluoromethoxyphenyl)-1H-pyrazol-3-yllphenyl}-3-methylbutanamide hydrochloride], for which the inhibition at 100 µM in the assay with P. infestans is 97%.

As for `CN1CCN(c2ccc(-c3cc(-c4cc(F)cc(F)c4)[nH]n3)cc2)CC1` [Compound 146, 1-{4-[5-(3,5-Difluorophenyl)-1H-pyrazol-3-yl]phenyl}-4-methylpiperazine], in the assay on P. infestans, the inhibition at 100 µM was found to be 95%.

In the case of `CN1CCN(C(=O)c2cccc(-c3cc(-c4ccc(C(F)(F)F)cc4)[nH]n3)c2)CC1` [Compound 147, {3-[5-(4-Trifluoromethylphenyl)-1H-pyrazol-3-yl]phenyl}(4-methylpiperazin-1-yl)methanone], the inhibition at 100 µM in the assay on P. infestans came to 81%.

In the case of `COCCNC(=O)Nc1cccc(-c2cc(-c3cccc(OC(F)(F)F)c3)[nH]n2)c1` [Compound 148, 1-{3-[5-(3-Trifluoromethoxyphenyl)-1H-pyrazol-3-yl]phenyl}-3-(2-methoxyethyl)urea], in the assay on P. infestans, the inhibition at 100 µM came to 6%.

As for `CN1CCN(c2ccc(-c3cc(-c4cc(F)ccc4F)[nH]n3)cc2)CC1` [Compound 149, 1-{4-[5-(2,5-Difluorophenyl)-1H-pyrazol-3-yl]phenyl}-4-methylpiperazine], in the assay with P. infestans, the inhibition at 100 µM amounted to 8%.

In the case of `Cc1cccc(-c2nc(-c3cccc(F)c3)c[nH]2)c1` [Compound 150, 4-(3-Fluorophenyl)-2-(3-methylphenyl)-1H-imidazole], the inhibition at 100 µM with P. infestans was found to be 91%.

As to `Fc1cccc(-c2c[nH]c(-c3cccc(C(F)(F)F)c3)n2)c1` [Compound 151, 4-(3-Fluorophenyl)-2-[3-(trifluoromethyl)phenyl]-1H-imidazole], in the assay with P. infestans, the inhibition at 100 µM stood at 85%.

`CCc1ccc(-c2c[nH]c(-c3ccc(NS(C)(=O)=O)cc3)n2)cc1` [Compound 152]: the inhibition at 100 µM with P. infestans stood at 91%.

As for `CCc1ccc(-c2c[nH]c(-c3ccc(NC(=O)[C@@H]4CCCN4)cc3)n2)cc1` [Compound 153, (2S)-N-{4-[4-(4-Ethylphenyl)-1H-imidazol-2-yl]phenyl}pyrrolidine-2-carboxamide dihydrochloride], the inhibition at 100 µM in the assay on P. infestans was 95%.

As for `CCc1ccc(-c2c[nH]c(-c3ccc(NC(=O)OCCOC)cc3)n2)cc1` [Compound 154, 2-Methoxyethyl {4-[4-(4-ethylphenyl)-1H-imidazol-2-yl]phenyl}carbamate], in the assay on P. infestans, the inhibition at 100 µM was determined as 89%.

With `CCc1ccc(-c2c[nH]c(-c3ccc(NC(C)=O)cc3)n2)cc1` [Compound 155, N-{4-[4-(4-Ethylphenyl)-1H-imidazol-2-yl]phenyl}acetamide], the inhibition at 100 µM with P. infestans is 16%.

For `Cc1ccc(-c2n[nH]c(-c3cccc(N4CCCC4)c3)n2)cc1C` [Compound 156, 3-(3,4-Dimethylphenyl)-5-[3-(pyrrolidin-1-yl)phenyl]-1H-1,2,4-triazole], in the assay with P. infestans, the inhibition at 100 µM stood at 25%.

`Cc1ccc(-c2n[nH]c(-c3cccc(NC(=O)OC(C)C)c3)n2)cc1` [Compound 157, Propan-2-yl {3-[3-(4-methylphenyl)-1H-1,2,4-triazol-5-yl]phenyl}carbamate]: the inhibition at 100 µM in the assay with P. infestans was determined as 17%.

For `COc1ccc(-c2nc(-c3cccc(Cl)c3)n[nH]2)cc1OC` [Compound 158, 3-(3-Chlorophenyl)-5-(3,4-dimethoxyphenyl)-1H-1,2,4-triazole], the inhibition at 100 µM with P. infestans came out at 59%.

As for `Cc1ccc(-c2n[nH]c(-c3cccc(NC(=O)[C@@H](N)CC(C)C)c3)n2)cc1` [Compound 159, (2S)-2-Amino-N-{3-[3-(4-methylphenyl)-1H-1,2,4-triazol-5-yl]phenyl}-4-methylpentanamide], the inhibition at 100 µM in the assay on P. infestans worked out at 97%.

`COc1ccc(-c2nc(-c3ccc(C)c(C)c3)n[nH]2)cc1OC` [Compound 160, 5-(3,4-Dimethoxyphenyl)-3-(3,4-dimethylphenyl)-1H-1,2,4-triazole]: in the assay on P. infestans, the inhibition at 100 µM was 76%.

With `FC(F)(F)c1cccc(-c2nc(-c3cccc(Cl)c3)n[nH]2)c1` [Compound 161, 3-(3-Chlorophenyl)-5-[3-(trifluoromethyl)phenyl]-1H-1,2,4-triazole], the inhibition at 100 µM in the assay with P. infestans stood at 50%.

On to `Cc1ccc(-c2cc(-c3ccc(NC(=O)[C@@H](N)CCC(N)=O)cc3)[nH]n2)cc1` [Compound 162, (2S)-2-Amino-N1-{4-[3-(4-methylphenyl)-1H-pyrazol-5-yl]phenyl}pentanediamide hydrochloride], for which the inhibition at 100 µM with P. infestans was 34%.

In the case of `O=C(c1cccc(-c2nc(-c3cccc(F)c3)n[nH]2)c1)N1CCOCC1` [Compound 163, {3-[3-(3-Fluorophenyl)-1H-1,2,4-triazol-5-yl]phenyl}(morpholin-4-yl)methanone], in the assay with P. infestans, the inhibition at 100 µM came out at 22%.

For `COc1ccc(-c2n[nH]c(-c3ccc(Br)cc3)n2)cc1` [Compound 164, 5-(4-Bromophenyl)-3-(4-methoxyphenyl)-1H-1,2,4-triazole], in the assay on P. infestans, the inhibition at 100 µM stood at 8%.

Consider `CCOc1cccc(-c2cc(-c3ccc(OC(F)(F)F)cc3)[nH]n2)c1` [Compound 165, 5-(3-Ethoxyphenyl)-3-[4-(trifluoromethoxy)phenyl]-1H-pyrazole], for which, in the assay on P. infestans, the inhibition at 100 µM was found to be 2%.

As for `O=C(O)c1cccc(-c2cc(-c3ccc4c(c3)OCO4)[nH]n2)c1` [Compound 166, 3-[5-(1,3-Benzodioxol-5-yl)-1H-pyrazol-3-yl]benzoic acid], the inhibition at 100 µM with P. infestans turned out to be 6%.
